Results as given in patent publication US20230203058A1, “MACROCYCLIC DIAMINE DERIVATIVES AS ENT INHIBITORS FOR THE TREATMENT OF CANCERS, AND COMBINATION THEREOF WITH ADENOSINE RECEPTOR ANTAGONISTS” (ITEOS BELGIUM SA, priority 2020, published 2023).
Where two headings read alike, the source gives them in different places.

Columns and labels:
[1] = test system: stimulated primary human T cells; assay: T cell proliferation assay (rescue of proliferation in presence of ATP, CFSE dilution); format: cell-based; details: 100 uM ATP
Experimental: The aim of this study was to determine the potency of equilibrative nucleoside transporter 1 (ENT1) inhibitors to rescue proliferation by stimulated primary human T cells incubated in the presence of 100 uM Adenosine triphosphate (ATP), in baseline conditions (condition A) or in the presence of various proteins known to bind small molecules (condition B). Condition A: X-VIVO15 Condition B: X-VIVO15, 2% Human Serum Albumine (HSA) and 0,1% α-1-Acid Glycoprotein (AAG)
Cryopreserved purified human CD3+ T cells were thawed and washed twice with RPMI1640 medium, UltraGlutamine containing 10% hiFBS.
Cells were suspended in PBS containing 10% hiFBS. Cells were stained with CFSE by adding 2 µM solution in PBS, to get a final 1 µM CFSE solution. Cells were incubated while rotating for 5 minutes. Reaction was stopped by adding PBS with 10% FBS and cells were centrifuged for 5 minutes at 1500 rpm.
Cells were resuspended at 1.6 ×10^6 cells/mL, either in X-VIVO15 medium or in 4% Human Serum Albumin and 0,2% α-1-Acid Glycoprotein. 50 µL of cell suspension (8×10^4 T cells) was added to wells of sterile round-bottom 96-well plates. Cells were activated by adding 50 µL of anti-CD3 anti-CD28 coated microbeads, suspended either in XVIVO-15 medium or in 4% HSA and 0,2% α-1-Acid Glycoprotein, at a ratio of one microbead per two cells. Serial dilutions of the ENT1 inhibitors were prepared in X-VIVO15 from 10 mM stock solutions in DMSO, and 50 µL was added to the wells. ATP powder was diluted in X-VIVO15, and 50 µL of this compound was added to the wells to reach a final assay concentration of 100 µM. Final volume of 200 µL. The experiments were also performed in 384 well plates - all volumes reduced by a factor of 4 (12,5 µL) with a final volume of 50 µL. Experiments were performed in duplicate. The cells were placed in a 37° C. humidified tissue culture incubator with 5% CO2 for 72 hours for 96 well plates, 96 hours for 384 well plates. After 72 or 96 hours, proliferation was measured determined by CFSE dilution via flow cytometry.

human ENT1 = target: T1, human ENT1 (Homo sapiens, UniProt Q99808); assay: ENT1 binding assay (competition with Sahenta-DY647 on JAR cells); parameters: JAR cells expressing ENT1 were bought from ATCC® (HTB-144TM); host or cells: JAR cells (human choriocarcinoma line; whole cells); details: competition with Sahenta-DY647 100 nM, 4° C.
T1 sequence (Q99808 1-456): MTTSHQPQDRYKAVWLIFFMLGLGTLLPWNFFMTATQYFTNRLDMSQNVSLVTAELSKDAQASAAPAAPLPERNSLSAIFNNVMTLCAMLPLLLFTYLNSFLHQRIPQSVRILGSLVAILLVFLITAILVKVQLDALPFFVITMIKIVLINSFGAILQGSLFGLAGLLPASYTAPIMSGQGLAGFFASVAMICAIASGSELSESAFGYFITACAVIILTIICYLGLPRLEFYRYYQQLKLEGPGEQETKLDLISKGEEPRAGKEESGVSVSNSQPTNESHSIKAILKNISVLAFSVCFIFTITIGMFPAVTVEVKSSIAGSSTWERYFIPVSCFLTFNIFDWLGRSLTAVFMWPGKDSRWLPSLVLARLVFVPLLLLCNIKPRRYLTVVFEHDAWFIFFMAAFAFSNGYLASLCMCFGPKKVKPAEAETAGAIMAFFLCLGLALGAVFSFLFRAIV
How it was run: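 Competition binding on intact JAR cells (50000 per well) in HBSS with 10 mM Hepes and 0.1% BSA. Cells pre-incubated with compound 30 min at 4 °C, then Sahenta-DY647 added at its IC90 (100 nM) for another 30 min at 4 °C; after washing, fluorescence read at Ex 630/Em 670 nm.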

[2] = Condition A: X-VIVO15, read-out: T Cell proliferation (Condition A) IC50
[3] = Condition B: X-VIVO15, 2% HSA and 0,1% AAG, read-out: (2) T Cell proliferation (Condition B) IC50

Row | IC50 (human ENT1) [nM] | SMILES | IC50 [1, 2] [nM] | IC50 [1, 3] [nM]
1 | 1 to 20 | COc1cc2cc(c1OC)OCCCC(OC(=O)CCNC(C)=O)CCN1CCCN(CCCOC2=O)CC1 (stereo not shown) [Compound 100, 74,75-dimethoxy-6-oxo-5,8-dioxa-1(1,4)-diazepana-7(1,3)-benzenacyclotetradecaphane-12-yl 3-acetamidopropanoate] | 1 to 20 | > 500
2 | > 500 | COc1cc2cc(c1OC)OCCC[C@H](OC(=O)c1ccccc1)CCN1CCCN(CCCOC2=O)CC1 [Compound 33, (12S)-74,75-dimethoxy-6-oxo-5,8-dioxa-1(1,4)-diazepana-7(1,3)-benzenacyclotetradecaphane-12-yl benzoate] | > 500 | > 500
3 | 1 to 20 | COc1cc2cc(c1OC)OCCCC(OC(=O)c1c[nH]nn1)CCN1CCCN(CCCOC2=O)CC1 (stereo not shown) [Compound 58, 74,75-dimethoxy-6-oxo-5,8-dioxa-1(1,4)-diazepana-7(1,3)-benzenacyclotetradecaphane-12-yl 1 H-1,2,3-triazole-4-carboxylate] | 1 to 20 | > 500
4 | 1 to 20 | COc1cc2cc(c1OC)OCCCC(OC(=O)CCCNC(C)=O)CCN1CCCN(CCCOC2=O)CC1 (stereo not shown) [Compound 97, 74,75-dimethoxy-6-oxo-5,8-dioxa-1(1,4)-diazepana-7(1,3)-benzenacyclotetradecaphane-12-yl 4-acetamidobutanoate] | < 1 | > 500
5 | 1 to 20 | COc1cc2cc(c1OC)OCCCC(OC(=O)c1cnccn1)CCN1CCCN(CCCOC2=O)CC1 (stereo not shown) [Compound 54, 74,75-dimethoxy-6-oxo-5,8-dioxa-1(1,4)-diazepana-7(1,3)-benzenacyclotetradecaphane-12-yl pyrazine-2-carboxylate] | 20 to 500 | > 500
6 | 1 to 20 | COc1cc2cc(c1OC)OCCCC(OC(=O)CCCC#N)CCN1CCCN(CCCOC2=O)CC1 (stereo not shown) [Compound 96, 74,75-dimethoxy-6-oxo-5,8-dioxa-1 (1,4)-diazepana-7(1,3)-benzenacyclotetradecaphane-12-yl 4-cyanobutanoate] | 1 to 20 | > 500
7 | 1 to 20 | COCCC(=O)OC1CCCOc2cc(cc(OC)c2OC)C(=O)OCCCN2CCCN(CC1)CC2 (stereo not shown) [Compound 93, 74,75-dimethoxy-6-oxo-5,8-dioxa-1(1,4)-diazepana-7(1,3)-benzenacyclotetradecaphane-12-yl 3-methoxypropanoate] | 1 to 20 | > 500
8 | 1 to 20 | COc1cc2cc(c1OC)OCCCC(OC(=O)C1CCCCC1)CCN1CCCN(CCCOC2=O)CC1 (stereo not shown) [Compound 63, 74,75-dimethoxy-6-oxo-5,8-dioxa-1(1,4)-diazepana-7(1,3)-benzenacyclotetradecaphane-12-yl cyclohexanecarboxylate] | – | –
9 | > 500 | COc1cc2cc(c1OC)OCCCC(OC(=O)C1CCN(C)CC1)CCN1CCCN(CCCOC2=O)CC1 (stereo not shown) [Compound 64, 74,75-dimethoxy-6-oxo-5,8-dioxa-1(1,4)-diazepana-7(1,3)-benzenacyclotetradecaphane-12-yl 1-methylpiperidine-4-carboxylate] | – | –
10 | 1 to 20 | COc1cc2cc(c1OC)OCCCC(OC(=O)CCn1cnnn1)CCN1CCCN(CCCOC2=O)CC1 (stereo not shown) [Compound 98, 74,75-dimethoxy-6-oxo-5,8-dioxa-1(1,4)-diazepana-7(1,3)-benzenacyclotetradecaphane-12-yl 3-(1 H-tetrazol-1-yl)propanoate] | – | –
11 | 1 to 20 | COc1cc2cc(c1OC)OCCCC(OC(=O)CCn1cncn1)CCN1CCCN(CCCOC2=O)CC1 (stereo not shown) [Compound 102, 74,75-dimethoxy-6-oxo-5,8-dioxa-1 (1,4)-diazepana-7(1,3)-benzenacyclotetradecaphane-12-yl 3-(1H-1,2,4-triazol-1-yl)propanoate] | – | –

Continued, compound first:

Row | SMILES | IC50 (human ENT1) [nM] | IC50 [1, 2] [nM] | IC50 [1, 3] [nM]
12 | COc1cc2cc(c1OC)OCCCC(O/N=C\c1ccccc1)CCN1CCCN(CCCOC2=O)CC1 (stereo not shown) [Compound 37, (Z)-benzaldehyde O-(74,75-dimethoxy-6-oxo-5,8-dioxa-1(1,4)-diazepana-7(1,3)-benzenacyclotetradecaphane-12-yl) oxime] | 20 to 500 | 1 to 20 | > 500
13 | COc1cc2cc(c1OC)OCCCC(OC(=O)c1cccc(Oc3ccccc3)c1)CCN1CCCN(CCCOC2=O)CC1 (stereo not shown) [Compound 46, 74,75-dimethoxy-6-oxo-5,8-dioxa-1(1,4)-diazepana-7(1,3)-benzenacyclotetradecaphane-12-yl 3-phenoxybenzoate] | 20 to 500 | 1 to 20 | 20 to 500
14 | COc1cc(C(=O)O[C@@H]2CCCOc3cc(cc(OC)c3OC)C(=O)OCCCN3CCN(CC2)CC(F)(F)C3)cc(OC)c1OC [Compound 6, (12R)-16,16-difluoro-74,75-dimethoxy-6-oxo-5,8-dioxa-1(1,4)-diazepana-7(1,3)-benzenacyclotetradecaphane-12-yl 3,4,5-trimethoxybenzoate] | 1 to 20 | < 1 | 20 to 500
15 | COc1cc2cc(c1OC)OCCC[C@@H](OC(=O)c1ccccc1)CCN1CCCN(CCCOC2=O)CC1 [Compound 32, (12R)-74,75-dimethoxy-6-oxo-5,8-dioxa-1(1,4)-diazepana-7(1,3)-benzenacyclotetradecaphane-12-yl benzoate] | – | < 1 | 20 to 500
16 | COc1cc(C(=O)OC2CCCOc3cc(cc(Cl)c3Cl)C(=O)OCCCN3CCCN(CC2)CC3)cc(OC)c1OC (stereo not shown) [Compound 21, 74,75-dichloro-6-oxo-5,8-dioxa-1(1,4)-diazepana-7(1,3)-benzenacyclotetradecaphane-12-yl 3,4,5-trimethoxybenzoate] | 1 to 20 | – | –
17 | COc1cc2cc(c1OC)OCCCC(OC(=O)c1cccc3ncccc13)CCN1CCCN(CCCOC2=O)CC1 (stereo not shown) [Compound 56, 74,75-dimethoxy-6-oxo-5,8-dioxa-1(1,4)-diazepana-7(1,3)-benzenacyclotetradecaphane-12-yl quinoline-5-carboxylate] | 1 to 20 | – | –
18 | COc1cc2cc(c1OC)OCCCC(OC(=O)c1ccc(C(F)(F)F)cc1)CCN1CCCN(CCCOC2=O)CC1 (stereo not shown) [Compound 83, 74,75-dimethoxy-6-oxo-5,8-dioxa-1(1,4)-diazepana-7(1,3)-benzenacyclotetradecaphane-12-yl 4-(trifluoromethyl)benzoate] | 1 to 20 | – | –
19 | COc1cc(C(=O)O[C@@H]2CCCn3ncc4c(Cl)cc(cc43)C(=O)NCCCN3CCCN(CC2)CC3)cc(OC)c1OC [Compound 16, (10R)-14-chloro-2-oxo-11H-3-aza-1(6, 1)-indazola-7(1,4)-diazepanacyclotridecaphane-10-yl 3,4,5-trimethoxybenzoate] | 20 to 500 | – | –
20 | COc1cc(C(=O)O[C@@H]2CCCOc3cc(cc(Cl)c3Cl)C(=O)OCCCN3CCCN(CC2)CC3)cc(OC)c1OC [Compound 23, (12R)-74,75-dichloro-6-oxo-5,8-dioxa-1(1,4)-diazepana-7(1,3)-benzenacyclotetradecaphane-12-yl 3,4,5-trimethoxybenzoate] | 20 to 500 | – | –
21 | COc1cc(C(=O)OC2CCCOc3cc(cc(Cl)c3Br)C(=O)NCCCN3CCCN(CC2)CC3)cc(OC)c1OC (stereo not shown) [Compound 122, 74-bromo-75-chloro-6-oxo-8-oxa-5-aza-1(1,4)-diazepana-7(1,3)-benzenacyclotetradecaphane-12-yl 3,4,5-trimethoxybenzoate] | 1 to 20 | – | –
22 | COc1cc2cc(c1OC)OCCCC(O)CCN1CCCN(CCCNC2=O)CC1 (stereo not shown) [Compound 117, 12-hydroxy-74,75-dimethoxy-8-oxa-5-aza-1(1,4) -diazepana-7(1,3)-benzenacyclotetradecaphan-6-one] | > 500 | – | –
